Reference: US8227428B2, “Anti-infammatory macrolide” (Glaxo Group Limited, priority 2009, dated 2012)
Values after ≈ are worked out from the molar mass of the structure shown.

Experiments:
[1] = In vitro stability in human whole blood; assay type: in vitro ADME; conditions: 37° C.
Procedure: (§1) An in vitro stability study in human whole blood and plasma is carried out over 24 hours at 37° C. Drug-free freshly collected human blood (CPD—citrate-phosphate-dextrose is used for all blood collections as anticoagulant) and plasma are spiked with a previously prepared standard solution of test compound to a final concentration of 2000 ng/mL. For each compound blood and plasma are spiked in duplicate and incubated for 24 hours. Two separate aliquots of blood or plasma (50 μL) are sampled from each incubation mixture at 0, 15, 30, 60, 120, 240 and 1440 minutes. All aliquots are mixed with an equal volume of water (50 μL) and extracted with 300 μL of acetonitrile/methanol (2:1) containing internal standard (roxithromycin). The samples are then vortexed, centrifuged and analysed by LC/MS/MS (MRM mode). Results are expressed as the percentage of compound remaining, expressed as the ratio of analyte/internal standard.

[2] = In vitro stability in human plasma; assay type: in vitro ADME; conditions: 37° C.
Procedure: as §1

[3] = test system: Escherichia coli ATCC25922; assay: Anti-bacterial screening, broth microdilution MIC; assay type: cell-based; conditions: read-out: minimal inhibitory concentration (MIC)
Procedure: (§2) Whole-cell antimicrobial activity of compounds against clinically relevant bacteria (Staphylococcus aureus ATCC13709, Streptococcus pneumoniae ATCC49619, Streptococcus pyogenes ATCC700294, Moraxella catarrhalis ATCC23246, Haemophilus influenzae ATCC49247 and Escherichia coli ATCC25922) is determined by broth microdilution using the Clinical and Laboratory Standards (CLSI) recommended procedure (Document M7-[…], Methods for Dilution Susceptibility Tests for Bacteria that Grow Aerobically). Compounds are dissolved in DMSO to produce a 50 mM stock solution. The stock solution is diluted to a concentration of 128 μg/mL in appropriate media (Haemophilus Test Medium for Haemophilus influenzae, Mueller-Hinton Broth for Staphylococcus aureus, Moraxella catarrhalis and Escherichia coli, and Mueller-Hinton Broth supplemented with 5% horse serum for Streptococcus pyogenes and Streptococcus pneumoniae) to produce a working solution. A Tecan Genesis 150 Workstation (Tecan Group Ltd. Mannedorf, Switzerland) is used to prepare serial two-fold dilutions (50 μL aliquots) of the working solution in a U-shape bottom 96 well microtitre plate. After the compounds are diluted, a 50 μL aliquot of the test isolate ( 1×10^6 cfu/ml) is added to each well of the microtitre plate. The final test concentrations range from 0.125-64 μg/mL. Inoculated plates are incubated at 35° C. in ambient air for 18 to 24 hours. The minimum inhibitory concentration (MIC) is determined as the lowest concentration of compound that inhibited visible growth.

[4] = test system: Haemophilus influenzae ATCC49247; assay: Anti-bacterial screening, broth microdilution MIC; assay type: cell-based; conditions: read-out: minimal inhibitory concentration (MIC)
Procedure: as §2

[5] = test system: Moraxella catarrhalis ATCC23246; assay: Anti-bacterial screening, broth microdilution MIC; assay type: cell-based; conditions: read-out: minimal inhibitory concentration (MIC)
Procedure: as §2

[6] = test system: Staphylococcus aureus ATCC13709; assay: Anti-bacterial screening, broth microdilution MIC; assay type: cell-based; conditions: read-out: minimal inhibitory concentration (MIC)
Procedure: as §2

[7] = test system: Streptococcus pneumoniae ATCC49619; assay: Anti-bacterial screening, broth microdilution MIC; assay type: cell-based; conditions: read-out: minimal inhibitory concentration (MIC)
Procedure: as §2

[8] = test system: Streptococcus pyogenes ATCC700294; assay: Anti-bacterial screening, broth microdilution MIC; assay type: cell-based; conditions: read-out: minimal inhibitory concentration (MIC)
Procedure: as §2

[9] = test system: Lung neutrophilia induced by bacterial lipopolysaccharide (LPS); assay: Lung neutrophilia induced by bacterial lipopolysaccharide (LPS) in male BALB/cJ mice; assay type: in vivo; conditions: average; single dose 200 mg/kg i.p.; vs LPS challenged untreated animals
Procedure: For intraperitoneal administration (i.p.) compounds are dissolved in a final concentration of 10 mg/mL. The required amount of compound is first dissolved in dimethylsulfoxide (DMSO, Sigma) and then diluted with 0.5% (w/v) methyl-cellulose so that the final DMSO concentration is 5% (v/v). The obtained solution is applied in a dose volume of 0.2 mL per 10 g of animal. Therefore, the compound dose is 200 mg/kg.
Male BALB/cJ mice (Charles River, France), with an average weight of ˜30 g are randomly grouped (n=8 in testing group, 10 in positive control and 8 in negative control). Mice receive intraperitoneally (i.p.) a single dose of 200 mg/kg of test compound. Two hours after administration, 2 μg of LPS (from Escherichia coli serotype 0111:B4, Sigma), dissolved in sterile PBS in a volume of 60 μL, is intranasally administered to all experimental groups except the negative control group, which receive the same volume of vehicle (PBS). Animals are sacrificed approximately 24 hours after application of LPS in order to obtain bronchioalveolar lavage fluid (BALF), which is used to determine absolute number of cells and the percentage of neutrophils. Results are expressed as percentage decrease in total cell number and number of neutrophils in BALF of treated animals compared to positive control (LPS challenged, but untreated animals).

Compound: CC[C@H]1OC(=O)[C@H](C)[C@@H](O[C@H]2C[C@@](C)(OC)[C@@H](OC(=O)CN(CC)CC)[C@H](C)O2)[C@H](C)[C@@H](O[C@@H]2O[C@H](C)C[C@H](N(C)C)[C@H]2O)[C@](C)(OC)C[C@@H](C)C(=O)N[C@H](C)[C@@H](O)[C@]1(C)O [Example 3, 4″-O-(2-diethylaminoethanoyl)-6-O-methyl-9a-aza-9a-homoerythromycin A]
- stability in whole blood ([1]; 2000 ng/mL, over 24 hours): stable
- stability in plasma ([2]; 2000 ng/mL, over 24 hours): stable
- MIC [3]: > 64 µg/mL
- MIC [4]: > 64 µg/mL
- MIC [5]: 8 µg/mL (≈ 9.13 µM)
- MIC [6]: > 64 µg/mL
- MIC [7]: 8 µg/mL (≈ 9.13 µM)
- MIC [8]: > 64 µg/mL
- inhibition of the number of neutrophils in BALF [9]: more than 79%

Compound: CC[C@H]1OC(=O)[C@H](C)[C@@H](O[C@H]2C[C@@](C)(OC)[C@@H](OC(=O)CCN(CC)CC)[C@H](C)O2)[C@H](C)[C@@H](O[C@@H]2O[C@H](C)C[C@H](NC)[C@H]2O)[C@](C)(OC)C[C@@H](C)C(=O)N[C@H](C)[C@@H](O)[C@]1(C)O [Example 2, 3′-N-Demethyl-4″-O-(3-diethylaminopropionoyl)-6-O-methyl-9a-aza-9a-homoerythromycin A]
- compound remaining in whole blood ([1]; after 24 hours): around 41%
- compound remaining in plasma ([2]; after 24 hours): less than 2%
- MIC [3]: > 64 µg/mL
- MIC [4]: > 64 µg/mL
- MIC [5]: > 64 µg/mL
- MIC [6]: > 64 µg/mL
- MIC [7]: > 64 µg/mL
- MIC [8]: > 64 µg/mL
- inhibition of the number of neutrophils in BALF [9]: more than 70%
